Experimental data published in patent US7851474B2, “Dipiperazinyl ketones and related analogues” (Neurogen Corporation, priority 2005, dated 2010).
Like-named read-outs stand apart in the source and are kept apart here.

Biological target: T1, chimeric human H3 receptor (Homo sapiens, UniProt Q9Y5N1, E19D)
T1 construct: made in house; host or cells: Sf9 insect cells (baculovirus infection); P2 membrane preparation
Assay: Chimeric human H3 receptor GTP binding assay (agonist-stimulated GTP-gamma35S binding, Example 7)
Assay type: biochemical
Conditions: read-out: Ki
From the text: This Example illustrates a representative assay for evaluating agonist-stimulated GTP-gamma^35S binding (“GTP binding”) activity. […] This agonist-stimulated GTP binding activity can also be used to detect partial agonism mediated by antagonist compounds. A compound analyzed in this assay is referred to herein as a “test compound.”
Four independent baculoviral stocks (one directing the expression of the chimeric human H3 receptor and three directing the expression of each of the three subunits of a heterotrimeric G-protein) are used to infect a culture of Sf9 cells as described above. P2 membranes are prepared as described above, and agonist-stimulated GTP binding on the P2 membranes is assessed using histamine (Sigma Chemical Co., St. Louis, Mo.) as agonist in order to ascertain that the receptor/G-protein-alpha-beta-gamma combination(s) yield a functional response as measured by GTP binding. P2 membranes are resuspended by Dounce homogenization (tight pestle) in GTP binding assay buffer (50 mM Tris pH 7.4, 120 mM NaCl, 5 mM MgCl2, 2 mM EGTA, 1 mg/ml BSA, 0.2 mg/ml bacitracin, 0.02 mg/ml aprotinin, 0.01 mg/ml saponin, 10 μM GDP) and added to assay tubes at a concentration of 35 μg protein/reaction tube. […] In competition experiments, non-radiolabeled test compounds are added to separate reactions at concentrations ranging from 10^−10 M to 10^−6 M along with 1 μM histamine to yield a final volume of 0.20 ml.
Neutral antagonists are antagonists that are substantially free of inherent agonist activity, and include those test compounds that reduce the histamine-stimulated GTP binding activity towards, but not below, baseline levels. In contrast, in the absence of added histamine, inverse agonists reduce the GTP binding activity of the receptor-containing membranes below baseline.
After a 60-min incubation at room temperature, reactions are terminated by vacuum filtration over WHATMAN GF/C filters (pre-soaked in wash buffer, 0.1% BSA) followed by washing with ice-cold wash buffer (50 mM Tris pH 7.4, 120 mM NaCl). The amount of receptor-bound (and thereby membrane-bound) GTP-gamma^35S is determined by measuring the filter-bound radioactivity, preferably by liquid scintillation spectrometry of the washed filters. […] Data is expressed as percent above basal (baseline). The results of GTP binding experiments are analyzed using SIGMAPLOT software (SPSS Inc., Chicago, Ill.).
IC50 values are calculated by non-linear regression analysis of dose-response curves using Kaleidograph (Synergy Software, Reading, Pa.).

[1] = assay of Example 7, "*" in Ki of Table II
[2] = Table II, "*" in Ki, assay of Example 7
[3] = Table II "Ki", symbol "*": Ki in the assay of Example 7
[4] = Table II, assay of Example 7, "*" in Ki
[5] = assay of Example 7, symbol * in column headed Ki of Table II

T1 sequence (Q9Y5N1 with tags, fused parts or gaps E19D): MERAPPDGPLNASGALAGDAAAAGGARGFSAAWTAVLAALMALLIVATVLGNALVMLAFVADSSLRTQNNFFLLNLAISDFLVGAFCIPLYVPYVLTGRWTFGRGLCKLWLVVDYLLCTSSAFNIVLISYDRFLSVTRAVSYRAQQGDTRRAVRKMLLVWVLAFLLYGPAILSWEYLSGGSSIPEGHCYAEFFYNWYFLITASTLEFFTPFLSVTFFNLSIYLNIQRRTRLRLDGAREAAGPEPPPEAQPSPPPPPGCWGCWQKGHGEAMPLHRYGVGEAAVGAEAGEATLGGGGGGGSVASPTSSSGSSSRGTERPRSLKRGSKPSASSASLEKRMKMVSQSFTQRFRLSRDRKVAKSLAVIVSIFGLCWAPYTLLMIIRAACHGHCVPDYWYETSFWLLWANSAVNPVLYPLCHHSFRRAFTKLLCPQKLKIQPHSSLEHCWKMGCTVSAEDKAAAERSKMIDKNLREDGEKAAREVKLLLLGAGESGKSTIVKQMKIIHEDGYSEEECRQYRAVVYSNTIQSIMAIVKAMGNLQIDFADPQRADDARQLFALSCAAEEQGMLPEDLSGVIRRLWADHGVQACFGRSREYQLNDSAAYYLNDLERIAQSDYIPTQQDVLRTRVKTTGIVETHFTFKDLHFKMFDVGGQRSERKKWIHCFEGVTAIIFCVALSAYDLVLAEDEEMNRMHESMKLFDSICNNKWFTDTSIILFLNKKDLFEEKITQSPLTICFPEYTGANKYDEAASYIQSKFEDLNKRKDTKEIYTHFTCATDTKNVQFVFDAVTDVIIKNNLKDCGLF

For `CC(C)CNC(=O)c1ccc(N2CCN(CC(=O)N3CCN(C4CCC4)CC3)CC2)nc1` [Compound 1177, 6-{4-[2-(4-cyclobutylpiperazin-1-yl)-2-oxoethyl]piperazin-1-yl}-N-isobutylnicotinamide], the Ki [1] was < 1000 nM.

In the case of `O=C(CN1CCN(c2ccc(-c3cc(F)cc(F)c3)cc2)CC1)N1CCN(C2CCC2)CC1` [Compound 740, 1-cyclobutyl-4-{[4-(3′,5′-difluorobiphenyl-4-yl)piperazin-1-yl]acetyl}piperazine], the Ki [2] is reported as < 1000 nM.

In the case of `O=C(CN1CCN(c2cnc(-c3ccc(Cl)c(F)c3)cn2)CC1)N1CCN(C2CCC2)CC1` [Compound 903, 2-(4-chloro-3-fluorophenyl)-5-{4-[2-(4-cyclobutylpiperazin-1-yl)-2-oxoethyl]piperazin-1-yl}pyrazine], the Ki [3] is reported as < 1000 nM.

`CN(C)c1cccc(-c2ccc(N3CCN(CC(=O)N4CCN(C5CCC5)CC4)CC3)cc2)c1` [Compound 1117, 4′-{1-[2-(4-cyclobutylpiperazin-1-yl)-2-oxoethyl]piperazin-1-yl}-N,N-dimethylbiphenyl-3-amine] was tested, and the Ki [4] was < 1000 nM.

In the case of `O=C(CN1CCN(c2cnc(-c3ccccc3C(F)(F)F)cn2)CC1)N1CCN(C2CCC2)CC1` [Compound 969, 2-{4-[2-(4-cyclobutylpiperazin-1-yl)-2-oxoethyl]piperazin-1-yl}-5-[2-(trifluoromethyl)phenyl] pyrazine], the Ki [4] is reported as < 1000 nM.

`CCCc1ccc(-c2ccc(N3CCN(CC(=O)N4CCN(C5CCC5)CC4)CC3)nn2)cc1` [Compound 1018, 3-{4-[2-(4-cyclobutylpiperazin-1-yl)-2-oxoethyl]piperazin-1-yl}-6-(4-propylphenyl)pyridazine] was tested, and the Ki [4] was < 1000 nM.

For `Cc1cccc(C)c1N1CCN(CC(=O)N2CCN(C3CCC3)CC2)CC1` [Compound 698, 1-cyclobutyl-4-{[4-(2,6-dimethylphenyl)piperazin-1-yl]acetyl}piperazine], the Ki [2] was < 1000 nM.

In the case of `CSc1ccc(C(=O)NC2CCN(CC(=O)N3CCN(C4CCC4)CC3)C2)cc1` (stereo not shown) [Compound 1241, N-{1-[2-(4-cyclobutylpiperazin-1-yl)-2-oxoethyl]pyrrolidin-3-yl}-4-(methylthio)benzamide], the Ki [1] is reported as < 1000 nM.

In the case of `CN1Cc2cc(N3CCN(CC(=O)N4CCN(C5CCC5)CC4)CC3)ccc2C1=O` [Compound 1155, 5-{4-[2-(4-cyclobutylpiperazin-1-yl)-2-oxoethyl]piperazin-1-yl}-2-methylisoindolin-1-one], the Ki [1] is reported as < 1000 nM.

`CCC(C)N1CCN(C(=O)CN2CCN(c3cc(Cl)ccc3C)CC2)CC1` (stereo not shown) [Compound 885, 1-sec-butyl-4-{[4-(5-chloro-2-methylphenyl)piperazin-1-yl]acetyl}piperazine] was tested, and the Ki [3] was < 1000 nM.

In the case of `CC(C)(C)C(=O)c1ccc(N2CCN(CC(=O)N3CCN(C4CCCC4)CC3)CC2)cc1` [Compound 326, 1-(4-{4-[2-(4-cyclopentylpiperazin-1-yl)-2-oxoethyl]piperazin-1-yl}phenyl)-2,2-dimethylpropan-1-one], the Ki [5] is reported as < 1000 nM.

In the case of `CC(=O)c1ccc(N2C[C@@H](C)N(CC(=O)N3CCN(C4CCC4)CC3)C[C@@H]2C)cc1` (relative stereo) [Compound 1269, rel-1-(4-{(2R,5S)-4-[2-(4-cyclobutylpiperazin-1-yl)-2-oxoethyl]-2,5-dimethylpiperazin-1-yl}phenyl)ethanone], the Ki [1] is reported as < 1000 nM.

For `O=C(CN1CCN(c2ccc(-c3ccc(Cl)c(Cl)c3)nn2)CC1)N1CCN(C2CCC2)CC1` [Compound 1051, 3-{4-[2-(4-cyclobutylpiperazin-1-yl)-2-oxoethyl]piperazin-1-yl}-6-(3,4-dichlorophenyl)pyridazine], the Ki [4] was < 1000 nM.

In the case of `CC(=O)N1CCN(CC(=O)N2CCN(C3CCCCC3)CC2)CC1` [Compound 484, 1-acetyl-4-[2-(4-cyclohexylpiperazin-1-yl)-2-oxoethyl]piperazine], the Ki ("*" in Ki of Table II, assay of Example 7) is reported as < 1000 nM.

With `COCCN(C(=O)c1ccc(N2CCN(CC(=O)N3CCN(C4CCC4)CC3)CC2)nc1)C(C)C` [Compound 1172, 6-{4-[2-(4-cyclobutylpiperazin-1-yl)-2-oxoethyl]piperazin-1-yl}-N-isopropyl-N-(2-methoxyethyl)nicotinamide] the Ki [1] was < 1000 nM.

For `O=C(CC1CCCCC1)NC1CCN(CC(=O)N2CCN(C3CCC3)CC2)CC1` [Compound 1209, N-{1-[2-(4-cyclobutylpiperazin-1-yl)-2-oxoethyl]piperidin-4-yl}-2-cyclohexylacetamide], the Ki [1] was < 1000 nM.

For `COc1ccc(-c2ccc(N3CCN(CC(=O)N4CCN(C5CCC5)CC4)CC3)nn2)cc1F` [Compound 1027, 3-{4-[2-(4-cyclobutylpiperazin-1-yl)-2-oxoethyl]piperazin-1-yl}-6-(3-fluoro-4-methoxyphenyl) pyridazine], the Ki [4] was < 1000 nM.

With `CC1CCCN1C(=O)c1ccc(N2CCN(CC(=O)N3CCN(C4CCC4)CC3)CC2)cc1` (stereo not shown) [Compound 645, 1-cyclobutyl-4-[(4-{4-[(2-methylpyrrolidin-1-yl)carbonyl]phenyl}piperazin-1-yl)acetyl]piperazine] the Ki [2] was < 1000 nM.

With `CCCOc1ccc(-c2ccc(N3CCN(CC(=O)N4CCN(C5CCC5)CC4)CC3)cc2)cc1` [Compound 789, 1-cyclobutyl-4-{[4-(4′-propoxybiphenyl-4-yl)piperazin-1-yl]acetyl}piperazine] the Ki [3] was < 1000 nM.

`CCC(C)N1CCN(C(=O)CN2CCN(c3ccc(C(C)=O)cc3)CC2)CC1` (stereo not shown) [Compound 330, 1-(4-{4-[2-(4-sec-butylpiperazin-1-yl)-2-oxoethyl]piperazin-1-yl}phenyl)ethanone] was tested, and the Ki [5] was < 1000 nM.

For `Cc1cccc(N2CCN(CC(=O)N3CCN(C4CCC4)CC3)CC2)c1C` [Compound 672, 1-cyclobutyl-4-{[4-(2,3-dimethylphenyl)piperazin-1-yl]acetyl}piperazine], the Ki [2] was < 1000 nM.

For `COc1ccc(-c2ccc(N3CCN(CC(=O)N4CCN(C5CCC5)CC4)CC3)nn2)c(C)c1` [Compound 1038, 3-{4-[2-(4-cyclobutylpiperazin-1-yl)-2-oxoethyl]piperazin-1-yl}-6-(4-methoxy-2-methylphenyl)pyridazine], the Ki [4] was < 1000 nM.

For `CC(Oc1ccccc1)C(=O)N1CCN(CC(=O)N2CCN(C3CCC3)CC2)CC1` (stereo not shown) [Compound 720, 1-cyclobutyl-4-{[4-(2-phenoxypropanoyl)piperazin-1-yl]acetyl}piperazine], the Ki [2] was < 1000 nM.

`O=C(CN1CCN(c2ccc(-c3ccncc3)nn2)CC1)N1CCN(C2CCC2)CC1` [Compound 1000, 3-{4-[2-(4-cyclobutylpiperazin-1-yl)-2-oxoethyl]piperazin-1-yl}-6-pyridin-4-ylpyridazine] was tested, and the Ki [4] was < 1000 nM.

For `O=C(CN1CCN(c2ccc(-c3cc(Cl)ccc3Cl)cc2)CC1)N1CCN(C2CCC2)CC1` [Compound 682, 1-cyclobutyl-4-{[4-(2′,5′-dichlorobiphenyl-4-yl)piperazin-1-yl]acetyl}piperazine], the Ki [2] was < 1000 nM.

With `CC(C)(C)CNC(=O)c1cccc(N2CCN(CC(=O)N3CCN(C4CCC4)CC3)CC2)c1` [Compound 1085, 3-{4-[2-(4-cyclobutylpiperazin-1-yl)-2-oxoethyl]piperazin-1-yl}-N-(2,2-dimethylpropyl) benzamide] the Ki [4] was < 1000 nM.

For `N#Cc1ccc(-c2ccc(N3CCN(CC(=O)N4CCN(C5CCC5)CC4)CC3)nn2)cc1` [Compound 1100, 4-(6-{4-[2-(4-cyclobutylpiperazin-1-yl)-2-oxoethyl]piperazin-1-yl}pyridazin-3-yl)benzonitrile], the Ki [4] was < 1000 nM.

With `CN(C)c1cccc(-c2ccc(N3CCN(CC(=O)N4CCN(C5CCC5)CC4)CC3)nn2)c1` [Compound 996, 3-(6-{4-[2-(4-cyclobutylpiperazin-1-yl)-2-oxoethyl]piperazin-1-yl}pyridazin-3-yl)-N,N-dimethylaniline] the Ki [4] was < 1000 nM.
